This is an account of results in patent US9233983B2, “Substituted hetero-bicyclic compounds, compositions and medicinal applications thereof” (ADVINUS THERAPEUTICS LIMITED, priority 2012, dated 2016).

For one experiment, the system named is mouse splenocytes. Description: Inhibition of B Cell Activation as Measured by CD69 Expression in Mouse Splenocytes. As to conditions: Splenocyte; C57/BL6 splenocytes, 3 ug/mL goat anti-mouse IgM, 18-20 hrs, CD69+ve cells within CD19; read-out: Mouse spleenocyte IC50. It counts as cell-based. In outline: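 Total mouse splenocytes pre-incubated with compounds (half-log dilutions; DMSO 200× stocks from 2 mM) 30 min at 37 °C, then stimulated with 3 ug/mL anti-mouse IgM for 18-20 hrs. CD69+ cells within CD19+ B cells quantified by flow cytometry; IC50 from variable-slope sigmoid dose-response fit.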

In experiment [1] the target is human Bruton's Tyrosine Kinase (Btk) (Homo sapiens (Human), UniProt Q06187). Description: Recombinant Human Bruton's Tyrosine Kinase (Btk) Inhibition Assay (HTRF KinEASE-TK). It counts as biochemical. As to conditions: 20 ng/ml rhBtk, 77 μM ATP (KM), 1 μM TK-Biotin substrate, 90 min; read-out: hBTK IC50.
Sequence of human Bruton's Tyrosine Kinase (Btk) (Q06187 whole entry): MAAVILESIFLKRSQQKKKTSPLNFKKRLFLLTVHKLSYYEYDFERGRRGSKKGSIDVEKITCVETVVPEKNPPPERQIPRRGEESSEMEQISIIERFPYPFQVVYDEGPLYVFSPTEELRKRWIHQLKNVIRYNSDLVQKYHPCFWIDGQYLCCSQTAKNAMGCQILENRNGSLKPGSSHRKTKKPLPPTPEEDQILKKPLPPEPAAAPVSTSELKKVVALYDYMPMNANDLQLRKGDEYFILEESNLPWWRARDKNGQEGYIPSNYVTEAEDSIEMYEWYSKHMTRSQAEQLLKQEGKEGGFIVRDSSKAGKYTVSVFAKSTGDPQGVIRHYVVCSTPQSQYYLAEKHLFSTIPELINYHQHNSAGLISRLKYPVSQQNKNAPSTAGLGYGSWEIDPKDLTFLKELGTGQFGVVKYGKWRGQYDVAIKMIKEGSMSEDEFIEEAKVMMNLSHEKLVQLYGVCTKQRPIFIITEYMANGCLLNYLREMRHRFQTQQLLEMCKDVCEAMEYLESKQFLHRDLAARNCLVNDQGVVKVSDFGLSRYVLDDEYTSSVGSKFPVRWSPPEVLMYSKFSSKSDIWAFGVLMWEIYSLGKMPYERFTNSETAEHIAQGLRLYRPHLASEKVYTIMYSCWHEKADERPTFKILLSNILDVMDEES

As to `O=C1c2ccc(C3CC3)cc2OCCN1c1cccc(-c2ccnc3[nH]c(-c4ccc(CN5CCN(CC(F)(F)F)CC5)cn4)cc23)c1CO` [Example I-9, 8-cyclopropyl-4-[2-(hydroxymethyl)-3-[2-[5-[[4-(2,2,2-trifluoroethyl)piperazin-1-yl]methyl]-2-pyridyl]-1H-pyrrolo[2,3-b]pyridin-4-yl]phenyl]-2,3-dihydro-1,4-benzoxazepin-5-one], the results for the IC50 (in the experiment on mouse splenocytes; in experiment [1]) were 0.047 µM and 0.008 µM, respectively.
Taken in the same sequence, the figures for `O=C1c2ccc(C3CC3)cc2OCCN1c1cccc(-c2ccnc3[nH]c(-c4ccc(CN5CCN(S(=O)(=O)C6CC6)CC5)cn4)cc23)c1CO` [Example I-10, 8-cyclopropyl-4-[3-[2-[5-[(4-cyclopropylsulfonylpiperazin-1-yl)methyl]-2-pyridyl]-1H-pyrrolo[2,3-b]pyridin-4-yl]-2-(hydroxymethyl)phenyl]-2,3-dihydro-1,4-benzoxazepin-5-one] were 0.031 µM and 0.007 µM.
Take `CCN1CCN(Cc2ccc(-c3cc4c(-c5cccc(N6CCOc7cc(C8CC8)cc(F)c7C6=O)c5CO)ccnc4[nH]3)nc2)CC1` [Example I-12, 8-cyclopropyl-4-[3-[2-[5-[(4-ethylpiperazin-1-yl)methyl]-2-pyridyl]-1H-pyrrolo[2,3-b]pyridin-4-yl]-2-(hydroxymethyl)phenyl]-6-fluoro-2,3-dihydro-1,4-benzoxazepin-5-one]: the IC50 in the experiment with mouse splenocytes worked out at 0.046 µM; in experiment [1], 0.002 µM.
On to `O=C1c2c(F)cc(C3CC3)cc2OCCN1c1cccc(-c2ccnc3[nH]c(-c4ccc(CN5CCN(C6COC6)CC5)cn4)cc23)c1CO` [Example I-13, 8-cyclopropyl-6-fluoro-4-[2-(hydroxymethyl)-3-[2-[5-[[4-(oxetan-3-yl)piperazin-1-yl]methyl]-2-pyridyl]-1H-pyrrolo[2,3-b]pyridin-4-yl]phenyl]-2,3-dihydro-1,4-benzoxazepin-5-one], for which the results for the IC50 (in the experiment with mouse splenocytes; in experiment [1]) were 0.008 µM and 0.002 µM, respectively.
Regarding `CC1CN(Cc2ccc(-c3cc4c(-c5cccc(N6CCOc7cc(C8CC8)cc(F)c7C6=O)c5CO)ccnc4[nH]3)nc2)CC(C)N1C` (stereo not drawn) [Example I-14, 8-cyclopropyl-6-fluoro-4-[2-(hydroxymethyl)-3-[2-[5-[(3,4,5-trimethylpiperazin-1-yl)methyl]-2-pyridyl]-1H-pyrrolo[2,3-b]pyridin-4-yl]phenyl]-2,3-dihydro-1,4-benzoxazepin-5-one], the IC50 in the experiment on mouse splenocytes came to 0.0075 µM; in experiment [1] it was 0.0017 µM.
Taken in the same sequence, the figures for `CN1CCN(Cc2ccc(-c3cc4c(-c5cccc(N6CCOc7cc(C8CC8)cc(F)c7C6=O)c5CO)ccnc4[nH]3)nc2)CC1=O` [Example I-15, 8-cyclopropyl-6-fluoro-4-[2-(hydroxymethyl)-3-[2-[5-[(4-methyl-3-oxo-piperazin-1-yl)methyl]-2-pyridyl]-1H-pyrrolo[2,3-b]pyridin-4-yl]phenyl]-2,3-dihydro-1,4-benzoxazepin-5-one] were 0.018 µM and 0.0015 µM.
Take `O=C1c2c(F)cc(C3CC3)cc2OCCN1c1cccc(-c2ccnc3[nH]c(-c4ccc(CN5CCN(CC(F)(F)F)CC5)cn4)cc23)c1CO` [Example I-16, 8-cyclopropyl-6-fluoro-4-[2-(hydroxymethyl)-3-[2-[5-[[4-(2,2,2-trifluoroethyl)piperazin-1-yl]methyl]-2-pyridyl]-1H-pyrrolo[2,3-b]pyridin-4-yl]phenyl]-2,3-dihydro-1,4-benzoxazepin-5-one]: the IC50 in the experiment on mouse splenocytes worked out at 0.0077 µM; in experiment [1] it was 0.0016 µM.
Regarding `CN1CCC(F)(c2ccc(-c3cc4c(-c5cccc(N6CCOc7cc(C8CC8)ccc7C6=O)c5CO)ccnc4[nH]3)cc2)CC1` [Example J-1, 8-cyclopropyl-4-[3-[2-[4-(4-fluoro-1-methyl-4-piperidyl)phenyl]-1H-pyrrolo[2,3-b]pyridin-4-yl]-2-(hydroxymethyl)phenyl]-2,3-dihydro-1,4-benzoxazepin-5-one], the IC50 in the experiment on mouse splenocytes turned out to be 0.179 µM; in experiment [1] it was 0.009 µM.
Taken in the same sequence, the figures for `CN1CCCC(F)(c2ccc(-c3cc4c(-c5cccc(N6CCOc7cc(C8CC8)ccc7C6=O)c5CO)ccnc4[nH]3)cc2)C1` (stereo not drawn) [Example J-2, 8-cyclopropyl-4-[3-[2-[4-(3-fluoro-1-methyl-3-piperidyl)phenyl]-1H-pyrrolo[2,3-b]pyridin-4-yl]-2-(hydroxymethyl)phenyl]-2,3-dihydro-1,4-benzoxazepin-5-one] were 0.077 µM and 0.0035 µM.
For `Cc1c(-c2ncnc3[nH]c(-c4ccc(C(=O)N5CCN(C)CC5)cc4)cc23)cccc1N1CCOc2cc(C3CC3)ccc2C1=O` [Example K-1, 8-cyclopropyl-4-[2-methyl-3-[6-[4-(4-methylpiperazine-1-carbonyl)phenyl]-7H-pyrrolo[2,3-d]pyrimidin-4-yl]phenyl]-2,3-dihydro-1,4-benzoxazepin-5-one], the IC50 in the experiment with mouse splenocytes was determined as 0.147 µM; in experiment [1], 0.02 µM.
With `Cc1c(-c2ncnc3[nH]c(-c4ccc(C(=O)N5CCC(O)CC5)cc4)cc23)cccc1N1CCOc2cc(C3CC3)ccc2C1=O` [Example K-2, 8-cyclopropyl-4-[3-[6-[4-(4-hydroxypiperidine-1-carbonyl)phenyl]-7H-pyrrolo[2,3-d]pyrimidin-4-yl]-2-methyl-phenyl]-2,3-dihydro-1,4-benzoxazepin-5-one], the results for the 50% inhibitory concentration (IC50) (with mouse splenocytes; in experiment [1]) were 0.815 µM and 0.032 µM, respectively.
As to `Cc1c(-c2ncnc3[nH]c(-c4ccc(C(=O)N5CCC(C)(O)CC5)cc4)cc23)cccc1N1CCOc2cc(C3CC3)ccc2C1=O` [Example K-4, 8-cyclopropyl-4-[3-[6-[4-(4-hydroxy-4-methyl-piperidine-1-carbonyl)phenyl]-7H-pyrrolo[2,3-d]pyrimidin-4-yl]-2-methyl-phenyl]-2,3-dihydro-1,4-benzoxazepin-5-one], the values for the IC50 (in the experiment on mouse splenocytes; in experiment [1]) were 0.129 µM and 0.051 µM, respectively.
As for `Cc1c(-c2ncnc3[nH]c(-c4ccc(C(=O)N5CCNCC5)cc4)cc23)cccc1N1CCOc2cc(C3CC3)ccc2C1=O` [Example K-6, 8-cyclopropyl-4-[2-methyl-3-[6-[4-(piperazine-1-carbonyl)phenyl]-7H-pyrrolo[2,3-d]pyrimidin-4-yl]phenyl]-2,3-dihydro-1,4-benzoxazepin-5-one], the results for the IC50 (in the experiment on mouse splenocytes; in experiment [1]) were 0.189 µM and 0.0097 µM, respectively.
`Cc1c(-c2ncnc3[nH]c(-c4ccc(C(=O)N5CCC(O)CC5)cc4)cc23)cccc1N1CCc2cc(C3CC3)ccc2C1=O` [Example K-16, 6-cyclopropyl-2-[3-[6-[4-(4-hydroxypiperidine-1-carbonyl)phenyl]-7H-pyrrolo[2,3-d]pyrimidin-4-yl]-2-methyl-phenyl]-3,4-dihydroisoquinolin-1-one]: the values for the IC50 (in the experiment with mouse splenocytes; in experiment [1]) were more than 1 µM and 0.021 µM, respectively.
Regarding `Cc1c(-c2ncnc3[nH]c(-c4ccc(C(=O)N5CCNCC5)cc4)cc23)cccc1N1CCc2cc(C3CC3)ccc2C1=O` [Example K-19, 6-cyclopropyl-2-[2-methyl-3-[6-[4-(piperazine-1-carbonyl)phenyl]-7H-pyrrolo[2,3-d]pyrimidin-4-yl]phenyl]-3,4-dihydroisoquinolin-1-one], the IC50 is more than 1 µM in the experiment with mouse splenocytes and 0.036 µM in experiment [1].
Taken in the same sequence, the figures for `Cc1c(-c2ncnc3[nH]c(-c4ccc(C(=O)N5CCC(O)CC5)cc4)cc23)cccc1-n1ncc2cc(C3CC3)ccc2c1=O` [Example K-20, 6-cyclopropyl-2-[3-[6-[4-(4-hydroxypiperidine-1-carbonyl)phenyl]-7H-pyrrolo[2,3-d]pyrimidin-4-yl]-2-methyl-phenyl]phthalazin-1-one] were 0.195 µM and 0.044 µM.
Taken in the same sequence, the figures for `NC(=O)c1ccc(-c2cc3c(-c4cccc(N5CCOc6cc(C7CC7)ccc6C5=O)c4CO)ccnc3[nH]2)nc1` [Example K-22, 6-[4-[3-(8-cyclopropyl-5-oxo-2,3-dihydro-1,4-benzoxazepin-4-yl)-2-(hydroxymethyl)phenyl]-1H-pyrrolo[2,3-b]pyridin-2-yl]pyridine-3-carboxamide] were 0.008 µM and 0.002 µM.
Taken in the same sequence, the figures for `CC1(O)CCN(C(=O)c2ccc(-c3cc4c(-c5cccc(N6CCOc7cc(C8CC8)ccc7C6=O)c5CO)ccnc4[nH]3)nc2)CC1` [Example L-1, 8-cyclopropyl-4-[2-(hydroxymethyl)-3-[2-[5-(4-hydroxy-4-methyl-piperidine-1-carbonyl)-2-pyridyl]-1H-pyrrolo[2,3-b]pyridin-4-yl]phenyl]-2,3-dihydro-1,4-benzoxazepin-5-one] were 0.067 µM and 0.008 µM.
For `CC1(O)CCN(C(=O)c2ccc(-c3cc4c(-c5cccc(N6CCOc7cc(C8CC8)ccc7C6=O)c5CO)ccnc4[nH]3)cc2)CC1` [Example L-2, 8-cyclopropyl-4-[2-(hydroxymethyl)-3-[2-[4-(4-hydroxy-4-methyl-piperidine-1-carbonyl)phenyl]-1H-pyrrolo[2,3-b]pyridin-4-yl]phenyl]-2,3-dihydro-1,4-benzoxazepin-5-one], the values for the IC50 (with mouse splenocytes; in experiment [1]) were 0.087 µM and 0.009 µM, respectively.
With `CC1(O)CCN(C(=O)c2ccc(-c3cc4c(-c5cccc(N6CCOc7cc(C8CC8)cc(F)c7C6=O)c5CO)ccnc4[nH]3)nc2)CC1` [Example L-3, 8-cyclopropyl-6-fluoro-4-[2-(hydroxymethyl)-3-[2-[5-(4-hydroxy-4-methyl-piperidine-1-carbonyl)-2-pyridyl]-1H-pyrrolo[2,3-b]pyridin-4-yl]phenyl]-2,3-dihydro-1,4-benzoxazepin-5-one], the IC50 was determined as 0.021 µM with mouse splenocytes and 0.008 µM in experiment [1].
`Cc1c(-c2nc(N)nc3[nH]c(-c4ccc(CN5CCN(C)CC5)cc4)cc23)cccc1N1CCOc2cc(C3CC3)ccc2C1=O` [Example N-1, 4-[3-[2-amino-6-[4-[(4-methylpiperazin-1-yl)methyl]phenyl]-7H-pyrrolo[2,3-d]pyrimidin-4-yl]-2-methyl-phenyl]-8-cyclopropyl-2,3-dihydro-1,4-benzoxazepin-5-one]: the IC50 is 0.061 µM with mouse splenocytes and 0.033 µM in experiment [1].
